Assay results taken from patent US12018093B2, “Hemiasterlin derivatives and antibody-drug conjugates including same” (priority 2017, dated 2024).
*1 amine or outer side, *2 acyl side, *3 side chain or, on linkers, in order; H or OH if unused. Where a SMILES comes first, the peptide text is derived from it. [ ]: non-standard residue; d: D form. NMeTrp(1,β,β-Me3) = CN[C@H](C(=O)O)C(C)(C)c1cn(C)c2ccccc12; X1 = C/C(=C\[C@H](C(C)C)N(C)[*:1])C(=O)[*:2]; Tle = CC(C)(C)[C@H](N)C(=O)O

Experiments:
Karpas-299 cells = assay: Cellular toxicity test (1), CellTiter-Glo, Karpas-299; format: cell-based; conditions: Homo sapiens, 96 h, cultured 4 days, cell viability
Method: SU-DHL-1 cells (American Type Culture Collection, hereinafter, ATCC) and Karpas-299 cells (European Collection of Authenticated Cell Cultures, hereinafter, ECACC), which are human lymphoma cell lines, were cultured in RPMI 1640 (GIBCO) containing 10% fetal bovine serum (MP Biomedicals) (hereinafter, referred to as the “culture medium” in this test). SU-DHL-1 cells and Karpas-299 cells were prepared to be 2×10^6 cells/mL in the culture medium, and were added to a 96 well microplate for cell culturing in an amount of 50 μL for each well. Compounds of Examples or hemiasterlin 4 times diluted with the culture medium in 8 stages were added to the microplate in an amount of 50 μL for each well. To wells to which the test substance was not added, the culture medium was added in an amount of 50 μL for each well. These were cultured at 37 degree under 5% CO2 for 4 days. After culturing, the microplate was taken out from the incubator, and was left at rest at room temperature for 10 minutes. To each well, 50 μL of CellTiter-Glo Luminescent Cell Viability Assay (Promega) was added, and the resultant mixture was stirred. This mixture was incubated at a dark place for 20 minutes. Using a microplate luminometer, luminescence at each well was measured, thereby calculating the cell viability for each concentration of the test substance. From the cell viability, the IC50 value of the test substance was determined.
The IC50 value was calculated by the following formula: IC50(nM)=antilog(LOG10(a/b)×(e−d)/(c−d)+LOG10b) • a: concentration a of test substance • b: concentration b of test substance • c: cell viability upon adding test substance with concentration a • d: cell viability upon adding test substance with concentration b • e: intermediate value between maximum and minimum among cell viabilities upon • adding test substances with different concentrations (a and b are concentrations crossing the cell viability e, and a>b is indicated).
The cell viability at each concentration was calculated by the following formula: Cell Viability (%)=a′/b′×100 • a′: mean value of luminescence amount of wells to which test substance was added (n=6) • b′: mean value of luminescence amount of wells to which test substance was not added (n=6) • (n represents the number of evaluations performed per test substance concentration).

in vitro = conditions: PAMPA, pH 7.4
Method: By the parallel artificial membrane permeability assay (PAMPA), the membrane permeability of compounds of Examples was examined as follows: To the donor plate, System solution (pION inc.) and GIT Lipid-0 (pION inc.) were added in an amount of 200 μL and 4 μL for each well, respectively. To the acceptor plate, Acceptor Sink Buffer (pION inc.) was added in an amount of 200 μL. Both plates were superposed and incubated at 37° C. for 4 hours, and then, UVs in the solutions on the side of acceptor and on the side of donor were measured with an UV plate reader (190 to 500 nm). Compounds with poor UV absorption were measured by LC-MS. The permeability coefficient Pe (10^−6 cm/sec) of the drug was calculated by the following formula.

porcine tubulin = porcine tubulin (Sus scrofa, UniProt P02550+P02554); assay: Activity for inhibiting microtubule polymerization using porcine tubulins (2), microtubule polymerization rate; conditions: 60 minutes after assay initiation; relative to wells without compound; lower = stronger inhibition
porcine tubulin, sequence (P02554 whole entry): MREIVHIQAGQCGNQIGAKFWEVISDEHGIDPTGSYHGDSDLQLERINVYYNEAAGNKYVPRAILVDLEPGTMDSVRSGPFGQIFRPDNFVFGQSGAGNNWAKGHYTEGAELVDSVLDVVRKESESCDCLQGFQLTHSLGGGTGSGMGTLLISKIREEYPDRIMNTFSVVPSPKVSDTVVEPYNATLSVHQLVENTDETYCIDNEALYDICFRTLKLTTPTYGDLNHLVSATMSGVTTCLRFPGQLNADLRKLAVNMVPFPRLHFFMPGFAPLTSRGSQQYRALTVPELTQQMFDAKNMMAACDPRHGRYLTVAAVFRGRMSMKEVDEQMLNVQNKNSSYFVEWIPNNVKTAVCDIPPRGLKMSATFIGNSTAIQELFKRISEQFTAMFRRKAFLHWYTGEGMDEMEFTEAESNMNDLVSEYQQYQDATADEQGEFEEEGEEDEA
porcine tubulin, sequence (P02550 whole entry): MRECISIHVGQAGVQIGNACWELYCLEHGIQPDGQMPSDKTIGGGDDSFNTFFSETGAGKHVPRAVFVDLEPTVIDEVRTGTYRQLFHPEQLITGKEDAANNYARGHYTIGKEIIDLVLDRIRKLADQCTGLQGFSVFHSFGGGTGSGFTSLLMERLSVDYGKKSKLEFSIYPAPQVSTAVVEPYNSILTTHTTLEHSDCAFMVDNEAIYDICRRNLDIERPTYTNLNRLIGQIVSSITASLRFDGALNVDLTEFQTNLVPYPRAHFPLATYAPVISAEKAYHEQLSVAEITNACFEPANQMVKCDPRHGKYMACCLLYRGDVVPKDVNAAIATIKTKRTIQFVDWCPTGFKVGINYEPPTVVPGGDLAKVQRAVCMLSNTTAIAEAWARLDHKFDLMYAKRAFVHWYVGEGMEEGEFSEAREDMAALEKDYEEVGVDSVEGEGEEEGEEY

## CN[C@H](C(=O)N[C@H](C(=O)N(C)[C@H](/C=C(\C)C(=O)N[C@H](CCCCN)C(=O)O)C(C)C)C(C)(C)C)C(C)(C)c1cn(C)c2ccccc12 [Example 5]
Karpas-299 cells
  IC50: 87.2 nM

## CN[C@H](C(=O)N[C@H](C(=O)N(C)[C@H](/C=C(\C)C(=O)N[C@@H](CCC(=O)N[C@@H](CCC(=O)O)C(=O)O)C(=O)N[C@@H](CCC(=O)O)C(=O)O)C(C)C)C(C)(C)C)C(C)(C)c1cn(C)c2ccccc12 [Example 47] (H-[NMeTrp(1,β,β-Me3)][Tle][X1]E(Glu)E-OH)
In vitro
  Papp: < 0.1 ×10⁻⁶ cm/s
Porcine tubulin
  Microtubule polymerization rate (%): 3%
Karpas-299 cells
  IC50: 773 nM

## C/C(=C\[C@H](C(C)C)N(C)C(=O)[C@@H](NC(=O)[C@@H](N)C(C)(C)c1cn(C)c2ccccc12)C(C)(C)C)C(=O)N[C@H](CCC(=O)O)C(=O)O [Example 2, β,β,1-Trimethyl-L-tryptophyl-N-[(3S,4E)-6-{[(1R)-1,3-dicarboxypropyl]amino}-2,5-dimethyl-6-oxohex-4-en-3-yl]-N,3-dimethyl-L-valinamide]
In vitro
  Papp: 0.2 ×10⁻⁶ cm/s
Porcine tubulin
  Microtubule polymerization rate (%): 4%
Karpas-299 cells
  IC50: > 125 nM

## CNC(C(=O)N[C@H](C(=O)N(C)[C@H](/C=C(\C)C(=O)N[C@H](CCC(=O)O)C(=O)O)C(C)C)C(C)(C)C)C(C)(C)c1ccc(O)cc1 (stereo partly shown) [Example 59]
In vitro
  Papp: 0.5 ×10⁻⁶ cm/s
Porcine tubulin
  Microtubule polymerization rate (%): 2%
Karpas-299 cells
  IC50: 412 nM

## CN[C@H](C(=O)N[C@H](C(=O)N(C)[C@H](/C=C(\C)C(=O)N[C@H](CCC(=O)O)C(=O)O)C(C)C)C(C)(C)C)C(C)(C)C1CCCCC1 [Example 58]
In vitro
  Papp: 9 ×10⁻⁶ cm/s
Porcine tubulin
  Microtubule polymerization rate (%): 5%
Karpas-299 cells
  IC50: > 1000 nM

## CN[C@H](C(=O)N[C@H](C(=O)N(C)[C@H](/C=C(\C)C(=O)N[C@H](CCC(=O)O)C(=O)O)C(C)C)C(C)(C)C)C(C)(C)c1ccc(C(=O)O)cc1 [Example 71]
In vitro
  Papp: < 0.1 ×10⁻⁶ cm/s
Porcine tubulin
  Microtubule polymerization rate (%): 4%
Karpas-299 cells
  IC50: 701 nM

## CN[C@@H](C(=O)N[C@H](C(=O)N(C)[C@H](/C=C(\C)C(=O)N[C@H](CCC(=O)O)C(=O)O)C(C)C)C(C)(C)C)C(C)(C)c1cccc(Br)c1 [Example 65]
In vitro
  Papp: < 0.1 ×10⁻⁶ cm/s
Karpas-299 cells
  IC50: > 1000 nM

## CN[C@H](C(=O)N[C@H](C(=O)N(C)[C@H](/C=C(\C)C(=O)N[C@H](CCC(=O)O)C(=O)O)C(C)C)C(C)(C)C)C(C)(C)c1cccc(F)c1 [Example 56]
In vitro
  Papp: 0.7 ×10⁻⁶ cm/s
Porcine tubulin
  Microtubule polymerization rate (%): 7%
Karpas-299 cells
  IC50: 275 nM

## CN[C@H](C(=O)N[C@H](C(=O)N(C)[C@H](/C=C(\C)C(=O)N[C@H](CCC(=O)O)C(=O)O)C(C)C)C(C)(C)C)C(C)(C)c1cccc(Br)c1 [Example 69]
In vitro
  Papp: < 0.1 ×10⁻⁶ cm/s
Porcine tubulin
  Microtubule polymerization rate (%): 5%
Karpas-299 cells
  IC50: 97.1 nM

## CN[C@H](C(=O)N[C@H](C(=O)N(C)[C@H](/C=C(\C)C(=O)N[C@H](CCC(=O)O)C(=O)O)C(C)C)C(C)(C)C)C(C)(C)c1cccc(-c2ccccc2)c1 [Example 67]
In vitro
  Papp: < 0.1 ×10⁻⁶ cm/s
Porcine tubulin
  Microtubule polymerization rate (%): 42%
Karpas-299 cells
  IC50: 149 nM

## CN[C@H](C(=O)N[C@H](C(=O)N(C)[C@H](/C=C(\C)C(=O)N[C@@H](CS(=O)(=O)O)C(=O)O)C(C)C)C(C)(C)C)C(C)(C)c1ccccc1 [Example 53]
In vitro
  Papp: < 0.1 ×10⁻⁶ cm/s
Karpas-299 cells
  IC50: 122 nM

## C/C(=C\[C@H](C(C)C)N(C)C(=O)[C@@H](NC(=O)[C@H]1CCCCN1C(C)C)C(C)(C)C)C(=O)N[C@H](CCC(=O)O)C(=O)O [Example 57]
In vitro
  Papp: < 0.1 ×10⁻⁶ cm/s
Porcine tubulin
  Microtubule polymerization rate (%): 5%
Karpas-299 cells
  IC50: > 1000 nM

## CN[C@H](C(=O)N[C@H](C(=O)N(C)[C@H](/C=C(\C)C(=O)N[C@H](CCC(=O)N[C@@H](CCCCN)C(=O)O)C(=O)O)C(C)C)C(C)(C)C)C(C)(C)c1cn(C)c2ccc(F)cc12 [Example 52]
In vitro
  Papp: < 0.1 ×10⁻⁶ cm/s
Karpas-299 cells
  IC50: 230 nM

## CN[C@H](C(=O)N[C@H](C(=O)N(C)[C@H](/C=C(\C)C(=O)N[C@H](CCC(=O)O)C(=O)O)C(C)C)C(C)(C)C)C(C)(C)c1cccc(C)c1 [Example 68]
In vitro
  Papp: < 0.1 ×10⁻⁶ cm/s
Porcine tubulin
  Microtubule polymerization rate (%): 4%
Karpas-299 cells
  IC50: 26.5 nM

## CCOC(=O)[C@H](CCC(=O)O)NC(=O)/C(C)=C/[C@H](C(C)C)N(C)C(=O)[C@@H](NC(=O)[C@@H](NC)C(C)(C)c1cn(C)c2ccccc12)C(C)(C)C [Example 13]
Porcine tubulin
  Microtubule polymerization rate (%): 21%

## CN[C@H](C(=O)N[C@H](C(=O)N(C)[C@H](/C=C(\C)C(=O)N[C@H](CCC(=O)O)C(=O)O)C(C)C)C(C)(C)C)C(C)(C)c1ccc(C(=O)OC(C)(C)C)cc1 [Example 66]
In vitro
  Papp: < 0.1 ×10⁻⁶ cm/s
Porcine tubulin
  Microtubule polymerization rate (%): 9%
Karpas-299 cells
  IC50: > 1000 nM

## CN[C@H](C(=O)N[C@H](C(=O)N(C)[C@H](/C=C(\C)C(=O)N[C@H](CCC(=O)O)C(=O)O)C(C)C)C(C)(C)C)C(C)(C)c1cc(C)cc(C)c1 [Example 62]
Porcine tubulin
  Microtubule polymerization rate (%): 6%

## CNC(C(=O)N[C@H](C(=O)N(C)[C@H](/C=C(\C)C(=O)N[C@H](CCC(=O)O)C(=O)O)C(C)C)C(C)(C)C)C(C)(C)c1ccc(C(=O)O)cc1 (stereo partly shown) [Example 70]
In vitro
  Papp: 0.9 ×10⁻⁶ cm/s
Karpas-299 cells
  IC50: 721 nM

## CCOC(=O)CC[C@@H](NC(=O)/C(C)=C/[C@H](C(C)C)N(C)C(=O)[C@@H](NC(=O)[C@@H](N)C(C)(C)c1cn(C)c2ccccc12)C(C)(C)C)C(=O)OCC [Example 1, (2R)-2-{[(2E,4S)-4-{[(2S)-2-{[(2S)-2-Amino-3-methyl-3-(1-methyl-1H-indol-3-yl)butanoyl]amino}-3,3-dimethylbutanoyl](methyl)amino}-2,5-dimethylhex-2-enoyl]amino}pentane diethyl diester]
Karpas-299 cells
  IC50: 93.9 nM

## CN[C@H](C(=O)N[C@H](C(=O)N(C)[C@H](/C=C(\C)C(=O)N[C@@H](COP(=O)(O)O)C(=O)O)C(C)C)C(C)(C)C)C(C)(C)c1ccccc1 [Example 54]
Karpas-299 cells
  IC50: 22.2 nM

## CN[C@H](C(=O)N[C@H](C(=O)N(C)[C@H](/C=C(\C)C(=O)N[C@H](CCC(=O)O)C(=O)O)C(C)C)C(C)(C)C)C(C)(C)c1cccc(C(F)(F)F)c1 [Example 55]
In vitro
  Papp: < 0.1 ×10⁻⁶ cm/s
Porcine tubulin
  Microtubule polymerization rate (%): 16%
Karpas-299 cells
  IC50: 34.6 nM

## CN[C@H](C(=O)N[C@H](C(=O)N(C)[C@H](/C=C(\C)C(=O)N[C@@H](CCC(=O)O)C(=O)O)C(C)C)C(C)(C)C)C(C)(C)c1cn(C)c2ccccc12 [Example 6]
In vitro
  Papp: < 0.1 ×10⁻⁶ cm/s
Karpas-299 cells
  IC50: 34 nM

## CN[C@H](C(=O)N[C@H](C(=O)N(C)[C@H](/C=C(\C)C(=O)N[C@@H](CCC(=O)OC)C(=O)OC)C(C)C)C(C)(C)C)C(C)(C)c1cn(C)c2ccccc12 [Example 72]
In vitro
  Papp: < 0.1 ×10⁻⁶ cm/s
Porcine tubulin
  Microtubule polymerization rate (%): 1%
Karpas-299 cells
  IC50: 106 nM

## CN[C@H](C(=O)N[C@H](C(=O)N(C)[C@H](/C=C(\C)C(=O)N[C@H](CCC(=O)O)C(=O)O)C(C)C)C(C)(C)C)C(C)(C)c1ccc2ccccc2c1 [Example 64]
Karpas-299 cells
  IC50: 30 nM

## CN[C@H](C(=O)N[C@H](C(=O)N(C)[C@H](/C=C(\C)C(=O)N[C@@H](CC(=O)O)C(=O)N[C@@H](CC(=O)O)C(=O)N[C@@H](CC(=O)O)C(=O)N[C@@H](CC(=O)O)C(=O)N[C@@H](CC(=O)O)C(=O)O)C(C)C)C(C)(C)C)C(C)(C)c1cn(C)c2ccccc12 [Example 3, N-{(2E,4S)-2,5-Dimethyl-4-[methyl(N,β,β,1-tetramethyl-L-tryptophyl-3-methyl-L-valyl)amino]hex-2-enoyl}-L-α-aspartyl-L-t-aspartyl-L-α-aspartyl-L-α-aspartyl-L-α-aspartic acid] (H-[NMeTrp(1,β,β-Me3)][Tle][X1]DDDDD-OH)
In vitro
  Papp at 4 h: < 0.1 ×10⁻⁶ cm/s
Porcine tubulin
  Microtubule polymerization rate (%): 3%
Karpas-299 cells
  IC50: > 5000 nM

## CN[C@H](C(=O)N[C@H](C(=O)N(C)[C@H](/C=C(\C)C(=O)N[C@H](CCC(=O)O)C(=O)O)C(C)C)C(C)(C)C)C(C)(C)c1cccc(C#N)c1 [Example 60]
In vitro
  Papp: < 0.1 ×10⁻⁶ cm/s
Porcine tubulin
  Microtubule polymerization rate (%): 6%
Karpas-299 cells
  IC50: 406 nM
